Test results as given in patent US12544426B2, “Combination therapy with CD13-targeted chimeric proteins or chimeric protein complexes” (Orionis Biosciences, Inc., priority 2019, dated 2026).

B1: IFN-γ: human IFN-γ used on HUVECs, 200 ng/ml (protein)
chain: QDPYVKEAENLKKYFNAGHSDVADNGTLFLGILKNWKEESDRKIMQSQIVSFYFKLFKNFKDDQSIQKSVETIKEDMNVKFFNSNKKKRDDFEKLTNYSVTDLNVQRKAIHELIQVMAELSPAAKTGKRKRSQMLFRGRRASQ

Experiments:
[1] = tested on: B16BI6 tumor; assay: B16BI6 melanoma model, tumor growth; type: in vivo, mouse; settings: Example 5, alone or combined with birinapant
Text: FIG. 2A is a graph showing the change in B16BI6 tumor size in B16 mice treated with PBS, CD8-targeted chimeric protein (CD8-Actaferon) alone, BcII10 targeted mutated murine TNF (Y114L) alone, or CD8-targeted chimeric protein (CD8-Actaferon) and BcII10 targeted mutated murine TNF (Y114L). FIG. 2B is a graph showing the change in B16BI6 tumor size in B16 mice treated with PBS, CD8-targeted chimeric protein (CD8-Actaferon) alone, CD13 targeted mutated murine TNF (Y114L) alone, or CD8-targeted chimeric protein (CD8-Actaferon) and CD13 targeted mutated murine TNF (Y114L). […] Tumor growth is shown as mean TSI+SEM (n=6 per group). The line under the graph represents the treatment period. […] Error bars are SEM. ***, p<0.001 by one-way ANOVA with Bonferroni's multiple comparison test. […]
FIG. 7A: Toxicity of wt sc mTNF and mutant Y86F after injection (T) in naïve C56BU6 mice. […] FIG. 7B: Plasma IL-6 concentrations measured via ELISA. […]
FIG. 8A and 8B: B16BI6 tumor growth after daily p.1. treatment with 7 μg mTNF, 30 μg hTNF alone or in combination with 10000 IU mIFN-γ in wt C57BL/6 mice (a) or homozygous Flk1 dnIFN-γR transgenic mice. […] FIG. 8C: IL-8 concentration in HUVEC supernatant after 24 h stimulation with the indicated concentration of sc hTNF mutant Y87F (Y87F), hCD13-AFR or wt hTNF, alone or in combination with 200 ng/ml hIFN-γ, measured via ELISA. […]

[2] = tested on: HUVEC; assay: IL-8 secretion by HUVECs (ELISA of supernatant); type: cell-based, human; settings: 24 h stimulation, 200 ng/ml hIFN-γ where used
Experimental: FIG. 8A and 8B: B16BI6 tumor growth after daily p.1. treatment with 7 μg mTNF, 30 μg hTNF alone or in combination with 10000 IU mIFN-γ in wt C57BL/6 mice (a) or homozygous Flk1 dnIFN-γR transgenic mice. The line under the graph represents the treatment period. Tumor growth is depicted as mean TSI, error bars are SEM (n=5 per group). FIG. 8C: IL-8 concentration in HUVEC supernatant after 24 h stimulation with the indicated concentration of sc hTNF mutant Y87F (Y87F), hCD13-AFR or wt hTNF, alone or in combination with 200 ng/ml hIFN-γ, measured via ELISA. Error bars are SEM. ns, non-significant; p<0.01; ***, p<0.001 by one-way ANOVA with Bonferroni's multiple comparison test. FIG. 8D: Schematic representation of AFN-II, consisting of a VHH fused via a 20×GGS linker to an engineered IFN-γ (e-IFN-γ) variant and N-terminal affinity tag. FIG. 8E: Viability of B16BI6 parental or mCD20-expressing cells after 72 h stimulation with wt mIFN-γ or de18 mutant fused to a BcII10 or mCD20 VHH, in the presence of 60 ng/ml mTNF. Cell viability was measured via an ATP luminescence assay. Each point is the mean of three replicates and error bars are SEM.
It was also tested whether IFN-γ could sensitize HUVECs to TNF, using either wtTNF or hCD13-AFR.

| Molecule | Tumor growth (FIG. 5A) [1] | IL-8 secretion by HUVECs [2] |
| --- | --- | --- |
| CC[C@H](NC(=O)[C@H](C)NC)C(=O)N1C[C@@H](O)C[C@H]1Cc1c(-c2[nH]c3cc(F)ccc3c2C[C@@H]2C[C@H](O)CN2C(=O)[C@H](CC)NC(=O)[C@H](C)NC)[nH]c2cc(F)ccc12 [birinapant] | very little effect on tumor growth |  |
| B1 |  | no effect on IL-8 secretion |
